In this assay the target is T1, β2-Microglobulin (11.7 kDa) (Homo sapiens, UniProt P61769).
T1 construct: β2-microglobulin (Human Urine≥98% (SDS-PAGE)); purchased Lee Biosolutions; host or cells: human urine
Kind of assay: Photochemical labeling of β2-microglobulin (LC/MS, MS-MS). Type of assay: biochemical. On the procedure:
General Procedure B: Photochemical Irradiation of Peptides and Proteins: To a 2 mL Pyrex LC/MS vial (Thermo model #03-391-39) were sequentially added solutions containing the desired biomolecule, glutathione (GSH), pyridinium salt, and ammonium acetate (NH4OAc). The resulting solution was diluted to a final volume of 500 μL and then sparged using nitrogen for a minimum of 30 minutes prior to irradiation. The actively sparging solution was then placed in an EvoluChem™ PhotoRedOx Box photoreactor that was equipped with a Kessil, PR160 427 nm LED Lamp and was then irradiated (100% lamp intensity) for the designated time at room temperature while maintaining active sparging. The resultant reaction mixture was then analyzed directly by LC/MS. Analysis of labeling outcomes using LC/MS was performed either by extracted ion chromatogram intensities (method A) or by integrating the area under the peaks associated with peptide content (method B). […]
Labeling of β2-Microglobulin with Pyridinium Salt 2a (B2-Microglobulin-2a Conjugate). […] The reaction mixture was directly analyzed by LC/MS using method A and was estimated to have proceeded with 88% conversion with a >20:1 mono:di labeled ratio and 7% glutathionylation of all unlabeled and labeled protein content. β2-Microglobulin-2a conjugate (retention time (Tr)=3.26-4.70 min). […]

SMILES strings stand for the structures. Counter-ions that a name gives are not always drawn.

T1 sequence (P61769 21-119): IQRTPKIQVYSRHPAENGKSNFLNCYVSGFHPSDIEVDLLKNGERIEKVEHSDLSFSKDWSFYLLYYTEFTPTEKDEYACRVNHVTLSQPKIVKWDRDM

As to `COC(=O)N(C)[n+]1c(C)cc(-c2ccc3cc(OC)ccc3c2)cc1C` [Pyridinium salt 2a, 1-((methoxycarbonyl)(methyl)amino)-4-(6-methoxynapthalen-2-yl)-2,6-dimethylpyridin-1-ium tetrafluoroborate], the “glutathionylation of all unlabeled and labeled protein content” value (10 μM β2-microglobulin, 200 μM pyridinium salt, 1 mM glutathione, 30 minutes) is listed as 7%. Also, the “site of tryptophan modification” value (digestion/MS-MS) was “Trp-60”.

(Values after patent publication US20240262844A1, “PYRIDINIUM SALTS AND METHODS OF USE” (UNIVERSITY OF WYOMING, priority 2023, published 2024).)
